In patent US4211772A, “Benzopyran glycoside acetals and ketals” (Laboratoires Sarget, priority 1977, dated 1980):
In brackets after ≈: the same amount, converted by molar mass. Like-named read-outs stand apart in the source and are kept apart here. Each block holds one molecule with its values, some of them ahead of it.

How the values were obtained:
Solubilities in water = format: physicochemical; conditions: for solubility: water, read-out: Solubilities in water
galactosemic cataract = assay: Galactosemic cataract in rats; format: in vivo, weaning male EOPS Wistar rats; conditions: 100 mg/kg/d i.p.
Method: GALACTOSEMIC CATARACT IN RATS
The study was conducted using weaning male EOPS Wistar rats having an initial weight of between 45 and 50 g. The animals were fed a high vitamin and high protein regimen containing 20% by weight of galactose. The first signs of cataracts, detected by the ophthalmoscope, appeared beginning with the third day. The animals received daily i.p. doses of the test compound, the treatment being started four days after the commencement of the galactosemic regimen. The evolution of the cataract was followed by the detection of maroon rings visible in the ophthalmoscope. These rings appeared on the external edge of the lens and progressed little by little to its center. Anatomopathological studies of the lenses confirmed that these brown rings correspond well to the characteristic histological lesions of galactosemic cataracts. Photographs taken with the aid of a retinograph facilitated the comparison of the evolution of the lesions.
Statistical calculations according to the .chi.^2 method permit an evaluation of the significance of the results obtained for each of the treatments compared to those for non-treated animals.

capillary permeability = assay: Capillaroprotecting effects: capillary permeability; format: in vivo, conventional male Wistar rats
Method: (§1) Capillaroprotecting effects
The capillary permeability was determined by the method of Charlier et al, Arch. Inter. Physiol.

capillary resistance = assay: Capillaroprotecting effects: capillary resistance; format: in vivo, male OFA EOPS rats
Method: as §1
The capillary resistance was determined by a variant of the method of Charlier et al, Arch. Inter. Physiol.

Aldose Reductase = target: T1, Aldose Reductase (Bos taurus, UniProt P16116); assay: Inhibition of aldose reductase in vitro (enzyme from beef eye lenses, glyceraldehyde substrate); format: biochemical; conditions: in DMF solution, read-out: percentages of inhibition (aldose reductase); for inhibition at 100 µM: 10^-4 mole/l; for inhibition at 10 µM: 10^-5 mole/l
T1 construct: The enzyme is extracted from beef eye lenses; from tissue; host or cells: beef eye lenses
Excerpt: Inhibition of Aldose Reductase In Vitro
The reoxidation of NADPH coupled to the enzymatic reaction was followed spectrophotometrically at 340 nm.

carragenin edema = assay: Anti-inflammatory activity: carragenin edema test; format: in vivo; conditions: Rattus norvegicus, ip, saturated bicarbonate solution, read-out: % inhibition of carragenin edema; for inhibition in vivo at 75 mg/kg: 75 mg/kg i.p.; for inhibition in vivo at 150 mg/kg: 150 mg/kg i.p.
Method: Anti-inflammatory activity
This was determined by the carragenin edema test using male Wistar EOPS rats. Inflammation was induced by the injection of 0.1 ml of a suspension of 5% carragenin in physiological serum into the muscular bundle of the metatarsal region of the posterior paw of the animal. The test substance was administered i.p. in neutralized solution at the same time as the carragenin.
Edema was measured by plethysmometry at different times after the administration of the carragenin.
Tables IV and V show the percentages of inhibition as a function of time and of dosage for certain compounds of the present invention.
The above results were obtained for solutions of substantially alkaline
The reference experiments were performed using physiological serum brough
to a pH approximately the same as the pH of the solutions to be tested.

Compound: O=c1c(O[C@@H]2O[C@H](CO[C@@H]3OC[C@H](O)[C@H](O)[C@H]3O)[C@@H](O)[C@H](O)[C@H]2O)c(-c2ccc(O)c(O)c2)oc2cc(O)cc(O)c12 [3-Vicianosyl quercetin, reference compound]
solubility (Solubilities in water): 330 µg/mL (≈ 553 µM) | percentage of animals which have not yet shown the appearance of cataracts (galactosemic cataract; day 0): 100% | percentage of animals which have not yet shown the appearance of cataracts (galactosemic cataract; day 1): 100% | percentage of animals which have not yet shown the appearance of cataracts (galactosemic cataract; day 2): 97% | percentage of animals which have not yet shown the appearance of cataracts (galactosemic cataract; day 3): 59% | percentage of animals which have not yet shown the appearance of cataracts (galactosemic cataract; day 4): 40% | significance compared to non-treated animals (chi^2) (galactosemic cataract; day 4): S | percentage of animals which have not yet shown the appearance of cataracts (galactosemic cataract; day 5): 31% | significance compared to non-treated animals (chi^2) (galactosemic cataract; day 5): S | percentage of animals which have not yet shown the appearance of cataracts (galactosemic cataract; day 6): 12% | significance compared to non-treated animals (chi^2) (galactosemic cataract; day 6): S | percentage of animals which have not yet shown the appearance of cataracts (galactosemic cataract; day 10): 9% | percentage of animals which have not yet shown the appearance of cataracts (galactosemic cataract; day 12): 19% | significance compared to non-treated animals (chi^2) (galactosemic cataract; day 12): S | percentage of animals which have not yet shown the appearance of cataracts (galactosemic cataract; day 16): 22% | significance compared to non-treated animals (chi^2) (galactosemic cataract; day 16): S | percentage of animals which have not yet shown the appearance of cataracts (galactosemic cataract; day -4): 100%

solubility (Solubilities in water): < 100 µg/mL | inhibition at 100 µM (Aldose Reductase): 83% | inhibition at 10 µM (Aldose Reductase): 56% | inhibition at 1 µM (Aldose Reductase; 10^-6 mole/l): 0%
Compound: CC1(C)OC[C@H]2O[C@@H](Oc3c(-c4ccc(O)c(O)c4)oc4cc(O)cc(O)c4c3=O)[C@H](O)[C@@H](O)[C@@H]2O1 [No. 5, 3-O-(4,6-O,O-isopropylidene-β-D-glucosyl)-quercetin]
percentage reduction of capillary permeability (capillary permeability; 50 mg/kg i.p.): 11% | percentage reduction of capillary permeability (capillary permeability; 100 mg/kg i.p.): 34% | percentage reduction of capillary permeability (capillary permeability; 200 mg/kg i.p.): 28% | % of animals for which the effect is ≥ 25 u cm Hg/h (capillary resistance; 50 mg/kg i.p.): 60% | capillary resistance, effect observed (capillary resistance; 50 mg/kg i.p.): 28 ± 9.8 u cm Hg/h | % of animals for which the effect is ≥ 25 u cm Hg/h (capillary resistance; 100 mg/kg i.p.): 80% | capillary resistance, effect observed (capillary resistance; 100 mg/kg i.p.): 32.25 ± 11.4 u cm Hg/h | % of animals for which the effect is ≥ 25 u cm Hg/h (capillary resistance; 200 mg/kg i.p.): 80% | capillary resistance, effect observed (capillary resistance; 200 mg/kg i.p.): 37 ± 16.1 u cm Hg/h

Compound: O=c1c(O[C@@H]2O[C@H](CO)[C@@H](O)[C@H](O)[C@H]2O)c(-c2ccc(O)c(O)c2)oc2cc(O)cc(O)c12 [Isoquercitrin, reference compound]
inhibition in vivo at 75 mg/kg (carragenin edema; 1/2 h): 28% | inhibition in vivo at 150 mg/kg (carragenin edema; 1/2 h): 30% | inhibition in vivo at 75 mg/kg (carragenin edema; 1 h, 1 h): 32% | inhibition in vivo at 150 mg/kg (carragenin edema; 1 h, 1 h): 40% | inhibition in vivo at 75 mg/kg (carragenin edema; 2 h, 2 h): 18% | inhibition in vivo at 150 mg/kg (carragenin edema; 2 h, 2 h): 37% | inhibition in vivo at 75 mg/kg (carragenin edema; 3 h, 3 h): 28% | inhibition in vivo at 150 mg/kg (carragenin edema; 3 h, 3 h): 18% | inhibition in vivo at 75 mg/kg (carragenin edema; 4 h, 4 h): 22% | inhibition in vivo at 150 mg/kg (carragenin edema; 4 h, 4 h): 9% | inhibition in vivo at 75 mg/kg (carragenin edema; 5 h, 5 h): 23% | inhibition in vivo at 150 mg/kg (carragenin edema; 5 h, 5 h): 9% | inhibition in vivo at 75 mg/kg (carragenin edema; 6 h, 6 h): 25% | inhibition in vivo at 150 mg/kg (carragenin edema; 6 h, 6 h): 6% | Solubilities in water (Solubilities in water): insoluble

Compound: O=c1ccc2cc(O[C@@H]3O[C@H](CO)[C@@H](O)[C@H](O)[C@H]3O)c(O)cc2o1 [Esculin, reference compound]
solubility (Solubilities in water): 1700 µg/mL (≈ 5000 µM) | inhibition at 100 µM (Aldose Reductase): 16%

solubility (Solubilities in water): 600 µg/mL (≈ 943 µM) | inhibition at 100 µM (Aldose Reductase): 42% | inhibition at 10 µM (Aldose Reductase): 0%
Compound: CC1(C)O[C@@H]2[C@@H](O)[C@H](OC[C@H]3O[C@@H](Oc4c(-c5ccc(O)c(O)c5)oc5cc(O)cc(O)c5c4=O)[C@H](O)[C@@H](O)[C@@H]3O)OC[C@@H]2O1 [No. 4, 3-O-(3,4-O,O-isopropylidene-6-α-L-arabinosyl-β-D-glucosyl)-quercetin]
